Experimental data published in patent US8609622B2, “C-aryl glucoside derivatives, preparation process and pharmaceutical use thereof” (Shanghai Hengrui Pharmaceutical Co., Ltd., priority 2010, dated 2013).

Legend:
[1] = target: SGLT2 (Homo sapiens (Human), UniProt P31639); test: SGLT2 activity measurement: [14C] methyl α-D-glucopyranoside uptake in SGLT2 instantaneous transfer strain; assay type: cell-based; conditions: SGLT2 transfected cells, 96-well plate, 15 min preincubation, 2 hours with [14C] methyl α-D-glucopyranoside at 37° C.
Sequence of SGLT2 (P31639 whole entry, species assumed): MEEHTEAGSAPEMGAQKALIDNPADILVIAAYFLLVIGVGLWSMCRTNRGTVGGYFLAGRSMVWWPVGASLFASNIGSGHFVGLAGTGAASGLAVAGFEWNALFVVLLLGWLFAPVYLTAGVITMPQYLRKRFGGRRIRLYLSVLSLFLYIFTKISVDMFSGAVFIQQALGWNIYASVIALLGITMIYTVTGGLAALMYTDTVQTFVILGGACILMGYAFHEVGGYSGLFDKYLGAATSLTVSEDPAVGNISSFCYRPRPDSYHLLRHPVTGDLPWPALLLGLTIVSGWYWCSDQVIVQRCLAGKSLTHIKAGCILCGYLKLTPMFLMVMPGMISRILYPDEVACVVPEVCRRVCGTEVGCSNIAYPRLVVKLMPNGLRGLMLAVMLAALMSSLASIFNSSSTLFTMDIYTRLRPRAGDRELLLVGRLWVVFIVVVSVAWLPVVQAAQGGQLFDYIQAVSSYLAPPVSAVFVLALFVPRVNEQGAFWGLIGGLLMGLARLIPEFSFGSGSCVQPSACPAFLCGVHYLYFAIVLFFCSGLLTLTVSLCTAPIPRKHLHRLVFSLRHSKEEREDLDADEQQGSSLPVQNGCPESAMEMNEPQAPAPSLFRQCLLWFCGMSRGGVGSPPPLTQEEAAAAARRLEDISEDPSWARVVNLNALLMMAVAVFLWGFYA
Description: (§1) Then each well of the 96-well plate was washed with 200 μL sodium-free buffer twice and 90 μL sodium-containing buffer solution containing test compounds having different concentrations was added, each of the test compounds having its corresponding concentration repeated in three wells. The compounds were incubated at 37° C. for 15 minutes and then each well of the 96-well plate was incubated with [14C] Methyl α-D-glucopyranoside (10 μL, totally 0.1 μCi) for another 2 hours at 37° C. Thereafter, supernatant was removed; the cell pellet was washed twice with precooling no-sodium buffer and lysed in 200 mM NaOH (100 μL). 100 μL scintillation fluid was added and mixed and 14C was quantitatively detected using liquid scintillation.
(§2) The IC50 values of the compounds can be calculated using the aggregation rate at different concentrations.

[2] = target: SGLT1 (Homo sapiens (Human), UniProt P13866); test: SGLT1 activity measurement: [14C] methyl α-D-glucopyranoside uptake in SGLT1 instantaneous transfer strain; assay type: cell-based; conditions: SGLT1 transfected cells, 96-well plate, 15 min preincubation, 2 hours with [14C] methyl α-D-glucopyranoside at 37° C.
Sequence of SGLT1 (P13866 whole entry, species assumed): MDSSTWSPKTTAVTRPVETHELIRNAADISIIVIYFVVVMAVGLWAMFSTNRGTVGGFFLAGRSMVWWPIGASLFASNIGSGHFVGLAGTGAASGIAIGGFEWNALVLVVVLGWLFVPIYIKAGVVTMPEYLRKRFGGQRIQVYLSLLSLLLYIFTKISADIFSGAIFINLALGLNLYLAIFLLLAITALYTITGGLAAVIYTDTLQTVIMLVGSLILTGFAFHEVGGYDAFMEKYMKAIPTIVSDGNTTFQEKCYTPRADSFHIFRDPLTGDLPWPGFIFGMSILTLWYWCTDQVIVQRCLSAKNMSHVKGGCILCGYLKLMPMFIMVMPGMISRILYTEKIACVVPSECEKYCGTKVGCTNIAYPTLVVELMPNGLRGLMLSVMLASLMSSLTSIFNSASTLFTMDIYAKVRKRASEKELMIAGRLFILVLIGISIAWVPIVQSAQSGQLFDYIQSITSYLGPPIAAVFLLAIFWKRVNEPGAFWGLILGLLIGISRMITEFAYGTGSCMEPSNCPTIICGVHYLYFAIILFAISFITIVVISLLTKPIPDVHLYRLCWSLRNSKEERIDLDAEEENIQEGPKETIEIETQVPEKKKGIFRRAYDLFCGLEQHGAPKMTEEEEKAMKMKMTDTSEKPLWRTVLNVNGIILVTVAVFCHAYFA
Description: as §1, §2

[3] = tested on: glucose-load mice; test: Preliminary evaluation of the hypoglycemic effect in glucose-load mice; assay type: in vivo; conditions: ICR mice, dose 1 mg/kg, 20% glucose solution 4 g/kg given 15 minutes after administering, blood glucose at minute 0, 15, 30, 45, 60, 120
Description: The purpose was to observe the effect of the test compounds on blood glucose levels of glucose-load mice. Determination and analysis of sugar content in the blood collected from the mouse tail was determined at different times within 2 hours of administration to provide preliminary evaluation of the hypoglycemic activity in vivo.
The experimental animals used were 24 healthy ICR mice (weighing 20-24 g), 12 female and 12 male, purchased from Shanghai Super—B&K laboratory animal Corp. Ltd., animal production license number: SCXK (Shanghai) 2008-0016.
To prepare the drug, a certain amount of compounds were weighed and dissolved in water (pure water OWN) and formulated into an aqueous solution of 0.1 mg/mL (5% DMSO for solubilization).
The administered dose was 1 mg/kg, blank and water groups (containing 5% DMSO).
20% glucose solution (4 g/kg, 0.8 mL each mouse) was given after 15 minutes of administration.
Administering in dose and measuring the blood glucose value (−15 minutes).

| SMILES | IC50 [1] | IC50 [2] | AUC decline rate % [3] |
| --- | --- | --- | --- |
| Cc1ccc(C23OCC(CO)(O2)C(O)C(O)C3O)cc1Cc1ccc(-c2ccc(F)cc2)s1 (single isomer, unassigned) [Example 9] | 9.28 nM | 1260 nM |  |
| OCC12COC(c3ccc(Cl)c(Cc4ccc(OCCOC5CC5)cc4)c3)(O1)[C@H](O)[C@@H](O)[C@@H]2O (stereo in doubt) [Example 1, (1S,2S,3S,4R,5S)-5-[4-chloro-3-[[4-[2-(cyclopropoxy)ethoxy]phenyl]methyl]phenyl]-1-(hydroxymethyl)-6,8-dioxabicyclo[3.2.1]octane-2,3,4-triol] | 9.53 nM | > 2000 nM | 10.04% |
| OCC12COC(c3ccc(Cl)c(Cc4ccc5c(c4)CCO5)c3)(O1)[C@H](O)[C@@H](O)[C@@H]2O (stereo in doubt) [Example 5, (1S,2S,3S,4R,5S)-5-[4-chloro-3-(2,3-dihydrobenzofuran-5-ylmethyl)phenyl]-1-(hydroxymethyl)-6,8-dioxabicyclo[3.2.1]octane-2,3,4-triol] |  |  | 14.13% |
| CCOc1ccc(Cc2cc(C34OCC(CO)(O3)[C@@H](O)[C@H](O)[C@H]4O)ccc2Cl)cc1F (stereo in doubt) [Example 4, (1S,2S,3S,4R,5S)-5-[4-chloro-3-[(4-ethoxy-3-fluoro-phenyl)methyl]phenyl]-1-(hydroxymethyl)-6,8-dioxabicyclo[3.2.1]octane-2,3,4-triol] |  |  | 15.88% |
| [2H]C([2H])(c1ccc(OCC)c(F)c1)c1cc(C23OCC(CO)(O2)[C@@H](O)[C@H](O)[C@H]3O)ccc1Cl (stereo in doubt) [Example 11, (1S,2S,3S,4R,5S)-5-[4-chloro-3-[dideuterio-(4-ethoxy-3-fluoro-phenyl)methyl]phenyl]-1-(hydroxymethyl)-6,8-dioxabicyclo[3.2.1]octane-2,3,4-triol] | 6.35 nM | 3550 nM |  |
| OCC12COC(c3ccc(Cl)c(Cc4ccc5c(c4)CCO5)c3)(O1)C(O)C(O)C2O (single isomer, unassigned) [Example 5] |  | 2520 nM |  |
| CCOc1ccc(Cc2cc(C34OCC(CO)(O3)C(O)C(O)C4O)ccc2Cl)c(F)c1F (single isomer, unassigned) [Example 3] | 8.08 nM |  |  |
| [2H]C([2H])([2H])C([2H])([2H])Oc1ccc(Cc2cc(C34OCC(CO)(O3)[C@@H](O)[C@H](O)[C@H]4O)ccc2Cl)cc1F (stereo in doubt) [Example 10, (1S,2S,3S,4R,5S)-5-[4-chloro-3-[[3-fluoro-4-(1,1,2,2,2-pentadeuterioethoxy)phenyl]methyl]phenyl]-1-(hydroxymethyl)-6,8-dioxabicyclo[3.2.1]octane-2,3,4-triol] | 3.31 nM | 1220 nM |  |
| COc1ccc(Cc2cc(C34OCC(CO)(O3)[C@@H](O)[C@H](O)[C@H]4O)ccc2Cl)c(F)c1F (stereo in doubt) [Example 2, (1S,2S,3S,4R,5S)-5-[4-chloro-3-[(2,3-difluoro-4-methoxy-phenyl)methyl]phenyl]-1-(hydroxymethyl)-6,8-dioxabicyclo[3.2.1]octane-2,3,4-triol] | 3.65 nM | > 2000 nM | 12.95% |
| OCC12COC(c3ccc(Cl)c(Cc4ccc(OCC(F)(F)F)cc4)c3)(O1)C(O)C(O)C2O (single isomer, unassigned) [Example 7] | 4.58 nM | 14300 nM |  |
| [2H]C([2H])([2H])Oc1ccc(Cc2cc(C34OCC(CO)(O3)[C@@H](O)[C@H](O)[C@H]4O)ccc2Cl)cc1F (stereo in doubt) [Example 8, (1S,2S,3S,4R,5S)-5-[4-chloro-3-[[3-fluoro-4-(trideuteriomethoxy)phenyl]methyl]phenyl]-1-(hydroxymethyl)-6,8-dioxabicyclo[3.2.1]octane-2,3,4-triol] | 1.42 nM | 600 nM | 20.49% |
| OCC12COC(c3ccc(Cl)c(Cc4ccc(OC(F)(F)F)cc4)c3)(O1)[C@H](O)[C@@H](O)[C@@H]2O (stereo in doubt) [Example 6, (1S,2S,3S,4R,5S)-5-[4-chloro-3-[[4-(trifluoromethoxy)phenyl]methyl]phenyl]-1-(hydroxymethyl)-6,8-dioxabicyclo[3.2.1]octane-2,3,4-triol] |  |  | 10.15% |
| CCOc1ccc(Cc2cc(C34OCC(CO)(O3)C(O)C(O)C4O)ccc2Cl)cc1F (single isomer, unassigned) [Example 4] | 6.92 nM |  |  |
| OCC12COC(c3ccc(Cl)c(Cc4ccc(OCC(F)(F)F)cc4)c3)(O1)[C@H](O)[C@@H](O)[C@@H]2O (stereo in doubt) [Example 7, (1S,2S,3S,4R,5S)-5-[4-chloro-3-[[4-(2,2,2-trifluoroethoxy)phenyl]methyl]phenyl]-1-(hydroxymethyl)-6,8-dioxabicyclo[3.2.1]octane-2,3,4-triol] |  |  | 10.75% |
